Assay results from US20040082773A1, “Modified PAR receptors, their preparation and their uses for selecting compounds which modulate PAR activity” (Pfizer Inc., priority 2002, published 2004).
Each block holds one molecule with its values, some of them ahead of it. Where no end group is shown, it is not given here.

How the values were obtained:
[1] = biological target: T1, PAR-2Mut2 receptor (Homo sapiens, UniProt P55085); assay: Calcium release direct measurement (FLIPR), CHO-NFAT-PAR-2Mut2 cells; assay type: cell-based
T1 construct: indeed comprising amino acids 43 to 397 of the precursor of human PAR-2; expressed in transfected cells
T1 sequence (P55085 43-397): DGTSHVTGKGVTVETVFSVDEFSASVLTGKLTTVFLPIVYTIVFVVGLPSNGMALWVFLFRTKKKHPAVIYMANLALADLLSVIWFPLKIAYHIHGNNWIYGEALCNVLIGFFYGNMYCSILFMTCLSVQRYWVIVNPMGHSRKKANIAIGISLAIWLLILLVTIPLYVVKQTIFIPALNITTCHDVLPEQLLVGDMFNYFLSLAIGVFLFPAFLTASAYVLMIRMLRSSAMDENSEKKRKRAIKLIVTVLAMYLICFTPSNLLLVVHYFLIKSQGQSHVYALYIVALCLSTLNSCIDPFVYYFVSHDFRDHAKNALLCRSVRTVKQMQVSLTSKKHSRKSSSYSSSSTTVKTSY
Experimental: (§1) The cells used for these tests were: CHO-NFAT-PAR-2-MUT2, CHO-NFAT-PAR-2-MUT3, CHO-NFAT-PAR2-WT and CHO-NFAT-WT.
(§2) The day before the experiment, the cells, were seeded into 384 well-plate in a medium DMEM glutamax (ref: 61965-026 Invitrogen, fetal calf serum 10% (ref: 10270106 Invitrogen), gentamycin 50 mg/ml 0.25% (ref: 15750-037 Invitrogen) at 25000 cells/well/50 μL.
(§3) The day of the experiment, the medium was discarded (by turning the plate). 50 μl of HBSS (Invitrogen réf: 14025.050), hepes (Invitrogen ref: 15630-05620 mM) were added to each well, HBSS was then discarded by turning the plate. 10 ml of Calcium kit loading solution and 10 ml HBSS, hepes 20 mM and 200 μl probenecid 250 μM were mixed and then 30 μl of this solution was added per well; plates were then incubated during 2 hours at 37° C. 4% CO2. 1.2 μl of a 250 μM compound in 25% DMSO to be tested and 3.8 μl HBSS, hepes 20 mM were added (on the Minitrak Va., Packard), the plates are transferred to the FLIPR and 25 μl 7.2 μM SLIGRL were added.
(§4) The dye is excited with the 488 nm excitation line of the argon laser and emits at 550 nm. The FLIPR quantifies the release of intracellular calcium in real time, the fluorescence is measured during 90 seconds.

[2] = system: CHO-NFAT cells; assay: Calcium release direct measurement (FLIPR), CHO-NFAT control cells; assay type: cell-based
Experimental: as §1
The day before the experiment, cells were seeded into 384 well-plate in a complete medium at 25000 cells/well/50 μL.
The day after, the medium was discarded (by turning the plate). 50 μl of HBSS, hepes 20 mM were added to each well, HBSS was then discarded by turning the plate. This was done twice.
10 ml of Calcium kit loading solution (solution prepared as described above) and 10 ml HBSS, hepes 20 mM and 200 μl probenecid 250 μM were mixed, and 30 μl of this solution per well were added, plates were incubated during 2 hours at 37° C. 5% CO2.
1.2 μl of compound to be tested (250 μM, 25% DMSO) and 3.8 μl HBSS, hepes 20 mM were added (on the Minitrak Va.). 25 μl 72 nM Trypsin was then added using the FLIPR.
The fluorescence was measured on the FLIPR as specified above.

[3] = biological target: T1, PAR-2Mut2 receptor; assay: Beta-lactamase reporter assay, CHO-NFAT-PAR-2Mut2 cells; assay type: cell-based; conditions: FIG. 6
Experimental: In a 96-well or 384-well microplate, […] the wild-type PAR-2 receptor (CHO-NFAT-PAR-2WT) or the CHO-NFAT cells expressing the PAR-2Mut2 receptor (CHO-NFAT-PAR-2mut2), in a proportion of 4×10^4 for a 96-well plate or 1×10^4 for a 384-well plate, for 4 hours, at 37° C., in an atmosphere containing 5% CO2 and in a modified Dulbecco medium (Lifetech, Gaithersburg, Md.) containing 100 μg/ml of gentamycin. The cells were placed in the dark for 1 hour at ambient temperature with 12 μM of CCF4-AM (Aurora Biosciences, San Diego, Calif.). The fluorescence was measured with a Fluostar fluorimeter (BMG, Germany). The excitation occurs at 405 nm and the emission is recorded at both 460 and 535 nm. The fluorescence ratio (460 nm/535 nm) is estimated after elimination of the background noise (medium without cells). The ED50 is considered to be the concentration of SLIGRL-NH2 necessary to achieve 50% of the maximum fluorescence ratio.
The CHO-NFAT-beta-lactamase cells stimulated with SLIGRL-NH2 in the medium mentioned above (4×10^4 cells/well) were used as control. All the reagents were added with the activating agent (chemical or referenced compounds), unless otherwise indicated.

[4] = system: CHO-NFAT cells; assay: Beta-lactamase reporter assay, CHO-NFAT control cells; assay type: cell-based
[5] = biological target: T2, PAR-2Mut3 receptor (Homo sapiens, UniProt P55085); assay: Calcium release direct measurement (FLIPR), CHO-NFAT-PAR2-Mut3 cells; assay type: cell-based
T2 construct: indeed comprising amino acids 57 to 397 of the precursor of human PAR-2; expressed in transfected cells
T2 sequence (P55085 57-397): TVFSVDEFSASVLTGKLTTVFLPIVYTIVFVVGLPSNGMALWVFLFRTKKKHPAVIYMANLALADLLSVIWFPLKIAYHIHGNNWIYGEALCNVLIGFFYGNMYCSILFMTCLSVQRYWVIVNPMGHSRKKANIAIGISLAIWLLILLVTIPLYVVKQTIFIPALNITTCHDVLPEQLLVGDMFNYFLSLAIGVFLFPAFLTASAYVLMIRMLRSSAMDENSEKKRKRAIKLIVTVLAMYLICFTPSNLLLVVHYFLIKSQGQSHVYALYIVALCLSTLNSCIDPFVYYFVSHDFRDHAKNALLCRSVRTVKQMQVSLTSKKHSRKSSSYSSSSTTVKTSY
Experimental: as §1, §2, §3, §4

[6] = biological target: T3, wild-type PAR-2 receptor expressed on CHO-NFAT cells (CHO-NFAT-PAR-2WT) (human, UniProt P55085 37-397); assay: cell-based or functional assay
T3 sequence (looked up): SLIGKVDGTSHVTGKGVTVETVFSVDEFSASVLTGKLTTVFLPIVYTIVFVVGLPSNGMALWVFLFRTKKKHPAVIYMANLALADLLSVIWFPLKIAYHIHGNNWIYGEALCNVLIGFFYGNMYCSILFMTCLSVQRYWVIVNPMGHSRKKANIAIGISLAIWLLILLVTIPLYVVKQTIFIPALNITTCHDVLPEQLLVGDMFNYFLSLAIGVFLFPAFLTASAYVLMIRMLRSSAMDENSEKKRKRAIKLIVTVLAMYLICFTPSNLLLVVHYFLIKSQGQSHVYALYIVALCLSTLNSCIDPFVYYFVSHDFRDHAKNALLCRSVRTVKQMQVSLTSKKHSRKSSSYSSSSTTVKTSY

[7] = biological target: T4, truncated PAR-2 receptor PAR-2Mut2 expressed on CHO-NFAT cells (CHO-NFAT-PAR-2Mut2) (human, UniProt P55085 43-397); assay: cell-based or functional assay
T4 sequence: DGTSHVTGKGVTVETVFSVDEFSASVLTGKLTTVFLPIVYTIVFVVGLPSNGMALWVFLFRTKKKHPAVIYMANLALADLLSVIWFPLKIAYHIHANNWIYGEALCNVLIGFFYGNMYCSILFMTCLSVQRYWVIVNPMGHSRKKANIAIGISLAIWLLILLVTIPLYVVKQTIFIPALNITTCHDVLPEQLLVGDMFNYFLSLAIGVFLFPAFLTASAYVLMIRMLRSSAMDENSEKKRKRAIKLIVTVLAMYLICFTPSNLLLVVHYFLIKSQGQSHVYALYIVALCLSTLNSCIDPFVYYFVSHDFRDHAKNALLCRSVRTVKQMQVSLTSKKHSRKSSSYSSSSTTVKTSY

- Fluorescence after stimulation, compared with CHO-PAR2-WT cells ([1]; CHO-NFAT-PAR-2Mut2 cells, SLIGRL-NH2 0.1 μM to 100 μM): higher
Molecule: SLIGRL [SLIGRL-NH2, synthetic ligand (Neosystème)]

- Activation of cells by trypsin (beta-lactamase fluorescence) [3]: not activated
- Activation of cells by trypsin (FLIPR calcium release) ([1]; CHO-NFAT-PAR2-MUT2 cells): not activated
- Activation of cells by trypsin (FLIPR calcium release) [5]: not activated
Molecule: trypsin
- Activation of cells by trypsin (FLIPR calcium release) [2]: not activated
- Activation of cells by trypsin (beta-lactamase fluorescence) [4]: not activated

- ED50 (beta-lactamase reporter, fluorescence ratio 460 nm/535 nM) [6]: 10 µM
- ED50 (beta-lactamase reporter, fluorescence ratio 460 nm/535 nM) [7]: 0.2 µM
Molecule: SLIGRL-NH2 [SLIGRL-NH2 synthetic ligand]
